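Values below derive from 48-hour exposures of cells grown in 96-well plates, with endpoints linearly interpolated between the two concentrations bracketing the appropriate inhibition level. At the GI50, growth is halved. The concentration for full growth arrest is given as TGI.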
Key:
Test in all cases: inhibition of tumour cell growth, NCI panel, 48 h
NCI-H522 lung = test system: NCI-H522 lung
IGROV1 ovarian = test system: IGROV1 ovarian
U251 CNS = test system: U251 CNS
NCI-H23 lung = test system: NCI-H23 lung
M14 melanoma = test system: M14 melanoma
A498 renal = test system: A498 renal
HS 578T breast = test system: HS 578T breast
MOLT-4 leukemia = test system: MOLT-4 leukemia
NCI/ADR-RES ovarian = test system: NCI/ADR-RES ovarian
SK-MEL-2 melanoma = test system: SK-MEL-2 melanoma

Structure (SMILES)	GI50 (NCI-H522 lung) [µM]	TGI (NCI-H522 lung) [µM]	GI50 (IGROV1 ovarian) [µM]	TGI (IGROV1 ovarian) [µM]	GI50 (U251 CNS) [µM]	TGI (U251 CNS) [µM]	GI50 (NCI-H23 lung) [µM]	TGI (NCI-H23 lung) [µM]	GI50 (M14 melanoma) [µM]	TGI (M14 melanoma) [µM]	TGI (A498 renal) [µM]	GI50 (HS 578T breast) [µM]	TGI (HS 578T breast) [µM]	GI50 (MOLT-4 leukemia) [µM]	GI50 (NCI/ADR-RES ovarian) [µM]	TGI (NCI/ADR-RES ovarian) [µM]	GI50 (SK-MEL-2 melanoma) [µM]	TGI (SK-MEL-2 melanoma) [µM]	GI50 (A498 renal) [µM]	TGI (MOLT-4 leukemia) [µM]
COc1cccc(C2CC(=O)Nc3c2c(C)nn3-c2nc3ccccc3[nH]2)c1OC (configuration not stated)	3.7	17.8	4.33	24	3.63	20.3	2.53	7.54	4.45	30.3	8.38	3.51	47.5	0.0531	6.67	> 100	6.37	32.7		
Clc1ccc2c(NCCNc3nc(N4CCOCC4)nc4ccccc34)ccnc2c1	2.03	3.8	2.88	10.2	1.71	3.4	4.08	17.8	1.94	3.89	4.62	2.58	7.71	3.33	3.73	15.5	1.95	3.72	1.87	14.1
Cc1ccc(-c2nc(NCCOCCOCCN)nc(N3CCN(c4ccccn4)CC3)n2)cc1	18.4	37	19.4	38	14.2	33	16.4	32	5.52	11.9	21.7	15.9	42.3	15.8	15.3	31.1	18	35.9	5.94	36
C=C1C(=O)OC2CC(C)C(/C=C/C(C)=O)=CCC12 (configuration not stated)		> 100		> 100		> 100		> 100		> 100	> 100		> 100			> 100		> 100		> 100
COc1cc2ncn(-c3cc(OCc4ccccc4C(F)(F)F)c(C(N)=O)s3)c2cc1OC	0.168	3.67	0.933	> 25	0.206	> 19.3	0.16	> 22.2	0.141	> 25	5.2	0.576	> 8.59	0.13	0.15	> 25	0.207	12.3	0.186	> 25
CC1(C)CC(O)CC(C)(C)N1O	> 100	> 100		> 100	> 100	> 100	> 100	> 100		> 100	> 100	> 100	> 100			> 100		> 100		> 100
Cn1c(=O)c(-c2ccccc2Cl)cc2cnc(NC3CCOCC3)nc21	12.6	> 25	9.42	> 25	15.1	> 25	18.3	> 25	5.66	> 25	15.5	9.12	> 25	10.2	12.9	> 25	6.1	14.7	3.34	> 25
Nc1ncn([C@H]2CC(O)[C@@H](CO)S2)c(=O)n1 (some centres not stated)	0.154	> 100	10.2	> 100	12.7	> 100	5.34	> 100	2.62	> 100	58.1	39.3	> 100	1.08	0.559	> 100	7.05	> 100	1.99	> 100
COc1cc(N=Nc2cc(Cc3ccc(N(C)C)cc3)c(N)cc2N(C)C)c2ncccc2c1	0.398	2.23	0.364	1.57	0.466	1.94	0.287	1.34	0.34	1.58	3.07	0.473	2.35	0.185	0.338	1.57	0.562	4.17	0.809	1.22

— PubChem BioAssay (NCI)
